Experimental data published in US20230406885A1, “CYCLIC PEPTIDES FOR TRAPPING INTERLEUKIN-1 BETA” (MERCK SHARP & DOHME LLC, priority 2022, published 2023).
*1 amine or outer side, *2 acyl side, *3 side chain or, on linkers, in order; H or OH if unused. Where a SMILES comes first, the peptide text is derived from it. [ ]: non-standard residue; d: D form. Phe(4-(4-Ac-piperazinyl)) = CC(=O)N1CCN(c2ccc(C[C@H](N)C(=O)O)cc2)CC1; Trp(4-Cl)(βS-Me) = C[C@@H](c1c[nH]c2cccc(Cl)c12)[C@H](N)C(=O)O; Trp(βS-Me,4-F) = C[C@@H](c1c[nH]c2cccc(F)c12)[C@H](N)C(=O)O; Bip(4'-COOH) = N[C@@H](Cc1ccc(-c2ccc(C(=O)O)cc2)cc1)C(=O)O; X1 = CC(=O)N1CCN(c2ccc(C[C@H](N[*:1])C(=O)[*:2])cn2)CC1; 1Nal(3S-Me) = C[C@@H](c1cccc2ccccc12)[C@H](N)C(=O)O; Phe(4-COOH) = N[C@@H](Cc1ccc(C(=O)O)cc1)C(=O)O; Phe(4-NH2) = Nc1ccc(C[C@H](N)C(=O)O)cc1; Pro(4R-NH2) = N[C@H]1CN[C@H](C(=O)O)C1; 1Nal = N[C@@H](Cc1cccc2ccccc12)C(=O)O; AEF = NCCOc1ccc(C[C@H](N)C(=O)O)cc1; hTyr = N[C@@H](CCc1ccc(O)cc1)C(=O)O; hCha = N[C@@H](CCC1CCCCC1)C(=O)O; 4Pal = N[C@@H](Cc1ccncc1)C(=O)O; dDab = NCC[C@@H](N)C(=O)O; dNMeA = CN[C@H](C)C(=O)O; Dab = NCC[C@H](N)C(=O)O; Aib = CC(C)(N)C(=O)O

Molecular target: T1, Recombinant human IL-1β (Homo sapiens, UniProt P01584)
T1 construct: purchased BioLegend 579404
Experiment: IL-6 assay in MRC5 cells: inhibition of IL-1β induced IL-6 secretion (AlphaLISA)
Type: cell-based
Details: inhibition of IL-1β induced IL-6 secretion in MRC5 cells; IL-1β pre-incubated 1 hour with compound; read-out: MRC5 IC50
Outline: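 IL-1β at 2×EC80 in seeding medium (EMEM, 0.025% BSA) preincubated 1 h at ambient temperature with compound, then 3000 MRC5 cells/well added and incubated overnight at 37 °C, 5% CO2. IL-6 in conditioned medium quantified by AlphaLISA; IC50 from 4-parameter logistic fit.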

T1 sequence (P01584 117-269): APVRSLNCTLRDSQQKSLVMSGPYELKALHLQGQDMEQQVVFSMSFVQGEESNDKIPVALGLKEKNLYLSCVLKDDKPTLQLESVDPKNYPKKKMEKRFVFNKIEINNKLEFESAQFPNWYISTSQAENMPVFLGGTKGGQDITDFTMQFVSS

IC50 [nM] | SMILES
0.454 | C[C@@H]1C(=O)NCC(=O)N[C@@H](Cc2ccc(-c3ccc(C(=O)O)cc3)cc2)C(=O)N[C@@H](Cc2ccc(N)cc2)C(=O)N[C@@H](CO)C(=O)N[C@H](C)C(=O)N[C@@H](CCc2ccc(O)cc2)C(=O)N[C@@H](Cc2ccc(-c3ccc(C(=O)O)cc3)cc2)C(=O)N[C@@H](Cc2c[nH]c3ccccc23)C(=O)N[C@@H](Cc2ccc(C(=O)O)cc2)C(=O)NCC(=O)N2C[C@H](N)C[C@H]2C(=O)N[C@@H]([C@@H](C)c2c[nH]c3cccc(Cl)c23)C(=O)N[C@@H](CC(=O)O)C(=O)N1C [Example 52] (cyclo([Bip(4'-COOH)]W[Phe(4-COOH)]G[Pro(4R-NH2)][Trp(4-Cl)(βS-Me)]D[dNMeA]G[Bip(4'-COOH)][Phe(4-NH2)]S[dA][hTyr]))
0.232 | C[C@@H]1C(=O)NCC(=O)N[C@@H](Cc2ccc(-c3ccc(C(=O)O)cc3)cc2)C(=O)N[C@@H](Cc2ccncc2)C(=O)N[C@@H](CO)C(=O)N[C@H](C)C(=O)N[C@@H](CCc2ccc(O)cc2)C(=O)N[C@@H](Cc2ccc(-c3ccc(C(=O)O)cc3)cc2)C(=O)N[C@@H](Cc2c[nH]c3ccccc23)C(=O)N[C@@H](Cc2ccc(C(=O)O)cc2)C(=O)NCC(=O)N2C[C@H](N)C[C@H]2C(=O)N[C@@H]([C@@H](C)c2c[nH]c3cccc(Cl)c23)C(=O)N[C@@H](CC(=O)O)C(=O)N1C [Example 39] (cyclo([Bip(4'-COOH)]W[Phe(4-COOH)]G[Pro(4R-NH2)][Trp(4-Cl)(βS-Me)]D[dNMeA]G[Bip(4'-COOH)][4Pal]S[dA][hTyr]))
0.247 | CC(=O)NCCOc1ccc(C[C@@H]2NC(=O)[C@H](CCc3ccc(O)cc3)NC(=O)[C@@H](C)NC(=O)[C@H](CCN)NC(=O)[C@H](Cc3ccncc3)NC(=O)[C@H](Cc3ccc(-c4ccc(C(=O)O)cc4)cc3)NC(=O)CNC(=O)[C@@H](C)N(C)C(=O)[C@H](CC(=O)O)NC(=O)[C@H]([C@@H](C)c3cccc4ccccc34)NC(=O)[C@@H]3C[C@@H](N)CN3C(=O)CNC(=O)[C@H](Cc3ccc(C(=O)O)cc3)NC(=O)[C@H](Cc3c[nH]c4ccccc34)NC2=O)cc1 [Example 101] (cyclo([AEF](Ac)W[Phe(4-COOH)]G[Pro(4R-NH2)][1Nal(3S-Me)]D[dNMeA]G[Bip(4'-COOH)][4Pal][Dab][dA][hTyr]))
0.457 | CC(=O)NCCOc1ccc(C[C@@H]2NC(=O)CNC(=O)C(C)(C)NC(=O)[C@H](CCN)NC(=O)[C@H](Cc3cccc4ccccc34)NC(=O)[C@H](Cc3ccc(-c4ccc(C(=O)O)cc4)cc3)NC(=O)CNC(=O)[C@@H](C)N(C)C(=O)[C@H](CC(=O)O)NC(=O)[C@H]([C@@H](C)c3cccc4ccccc34)NC(=O)[C@@H]3C[C@@H](N)CN3C(=O)CNC(=O)[C@H](Cc3ccc(C(=O)O)cc3)NC(=O)[C@H](Cc3c[nH]c4ccccc34)NC2=O)cc1 [Example 92] (cyclo([AEF](Ac)W[Phe(4-COOH)]G[Pro(4R-NH2)][1Nal(3S-Me)]D[dNMeA]G[Bip(4'-COOH)][1Nal][Dab][Aib]G))

Same assay, conditions: inhibition of IL-1β induced IL-6 secretion in MRC5 cells; read-out: MRC5 IC50

SMILES | IC50 [nM]
CC(=O)NCCOc1ccc(C[C@@H]2NC(=O)[C@H](CCc3ccc(O)cc3)NC(=O)[C@@H](CCN)NC(=O)[C@H](CC(C)C)NC(=O)[C@H](Cc3c[nH]c4ccccc34)NC(=O)[C@H](Cc3ccc(-c4ccc(C(=O)O)cc4)cc3)NC(=O)CNC(=O)[C@@H](C)N(C)C(=O)[C@H](CC(=O)O)NC(=O)[C@H]([C@@H](C)c3c[nH]c4cccc(F)c34)NC(=O)[C@@H]3C[C@@H](N)CN3C(=O)CNC(=O)[C@H](Cc3ccc(C(=O)O)cc3)NC(=O)[C@H](Cc3c[nH]c4ccccc34)NC2=O)cc1 [Example 168] (cyclo([AEF](Ac)W[Phe(4-COOH)]G[Pro(4R-NH2)][Trp(βS-Me,4-F)]D[dNMeA]G[Bip(4'-COOH)]WL[dDab][hTyr])) | 0.0847
CC(=O)NCCOc1ccc(C[C@@H]2NC(=O)[C@H](CCc3ccc(O)cc3)NC(=O)[C@@H](CCN)NC(=O)[C@H](CC(C)C)NC(=O)[C@H](Cc3c[nH]c4ccccc34)NC(=O)[C@H](Cc3ccc(-c4ccc(C(=O)O)cc4)cc3)NC(=O)CNC(=O)[C@@H](C)N(C)C(=O)[C@H](CC(=O)O)NC(=O)[C@H]([C@@H](C)c3cccc4ccccc34)NC(=O)[C@@H]3C[C@@H](N)CN3C(=O)CNC(=O)[C@H](Cc3ccc(C(=O)O)cc3)NC(=O)[C@H](Cc3c[nH]c4ccccc34)NC2=O)cc1 [Example 126] (cyclo([AEF](Ac)W[Phe(4-COOH)]G[Pro(4R-NH2)][1Nal(3S-Me)]D[dNMeA]G[Bip(4'-COOH)]WL[dDab][hTyr])) | 0.37
CC(=O)NCCOc1ccc(C[C@@H]2NC(=O)[C@H](CCc3ccc(O)cc3)NC(=O)[C@@H](CO)NC(=O)[C@H](CC(C)C)NC(=O)[C@H](Cc3c[nH]c4ccccc34)NC(=O)[C@H](Cc3ccc(-c4ccc(C(=O)O)cc4)cc3)NC(=O)CNC(=O)[C@@H](C)N(C)C(=O)[C@H](CC(=O)O)NC(=O)[C@H]([C@@H](C)c3c[nH]c4cccc(F)c34)NC(=O)[C@@H]3C[C@@H](N)CN3C(=O)CNC(=O)[C@H](Cc3ccc(C(=O)O)cc3)NC(=O)[C@H](Cc3c[nH]c4ccccc34)NC2=O)cc1 [Example 171] (cyclo([AEF](Ac)W[Phe(4-COOH)]G[Pro(4R-NH2)][Trp(βS-Me,4-F)]D[dNMeA]G[Bip(4'-COOH)]WL[dS][hTyr])) | 0.145

Results, then the molecule that gave them:

IC50 [nM] | SMILES
0.015 | CC(=O)N1CCN(c2ccc(C[C@@H]3NC(=O)[C@H](CCC4CCCCC4)NC(=O)[C@@H](C)NC(=O)[C@H](CC(C)C)NC(=O)[C@H](CCN)NC(=O)[C@H](Cc4ccc(-c5ccc(C(=O)O)cc5)cc4)NC(=O)CNC(=O)[C@@H](C)N(C)C(=O)[C@H](CC(=O)O)NC(=O)[C@H]([C@@H](C)c4cccc5ccccc45)NC(=O)[C@@H]4C[C@@H](N)CN4C(=O)CNC(=O)[C@H](Cc4ccc(C(=O)O)cc4)NC(=O)[C@H](Cc4c[nH]c5ccccc45)NC3=O)cn2)CC1 [Example 174] (cyclo([X1]W[Phe(4-COOH)]G[Pro(4R-NH2)][1Nal(3S-Me)]D[dNMeA]G[Bip(4'-COOH)][Dab]L[dA][hCha]))
0.012 | CC(=O)N1CCN(c2ccc(C[C@@H]3NC(=O)[C@H](CCC4CCCCC4)NC(=O)[C@@H](C)NC(=O)[C@H](CC(C)C)NC(=O)[C@H](CCN)NC(=O)[C@H](Cc4ccc(-c5ccc(C(=O)O)cc5)cc4)NC(=O)CNC(=O)[C@@H](C)N(C)C(=O)[C@H](CC(=O)O)NC(=O)[C@H]([C@@H](C)c4cccc5ccccc45)NC(=O)[C@@H]4C[C@@H](N)CN4C(=O)CNC(=O)[C@H](Cc4ccc(C(=O)O)cc4)NC(=O)[C@H](Cc4c[nH]c5ccccc45)NC3=O)cc2)CC1 [Example 203] (cyclo([Phe(4-(4-Ac-piperazinyl))]W[Phe(4-COOH)]G[Pro(4R-NH2)][1Nal(3S-Me)]D[dNMeA]G[Bip(4'-COOH)][Dab]L[dA][hCha]))
0.013 | CC(=O)N1CCN(c2ccc(C[C@@H]3NC(=O)[C@H](CCC4CCCCC4)NC(=O)[C@@H](C)NC(=O)[C@H](CC(C)C)NC(=O)[C@H](CCCCN)NC(=O)[C@H](Cc4ccc(-c5ccc(C(=O)O)cc5)cc4)NC(=O)CNC(=O)[C@@H](C)N(C)C(=O)[C@H](CC(=O)O)NC(=O)[C@H]([C@@H](C)c4cccc5ccccc45)NC(=O)[C@@H]4C[C@@H](N)CN4C(=O)CNC(=O)[C@H](Cc4ccc(C(=O)O)cc4)NC(=O)[C@H](Cc4c[nH]c5ccccc45)NC3=O)cn2)CC1 [Example 177] (cyclo([X1]W[Phe(4-COOH)]G[Pro(4R-NH2)][1Nal(3S-Me)]D[dNMeA]G[Bip(4'-COOH)]KL[dA][hCha]))
